These are literature values, as cited in paper PMC8513935.

Series [1] can be described thus: log P octanol/water from commercial databases, averaged (the ESI). The note with it: Octanol (wet), 25 C.
A short description of series [2]: derived by the authors as gas->solvent minus gas->water (a hypothetical dry solvent; the ESI), not a two-phase measurement.
The nature of series [3]: experimental, compiled by the authors from the literature (the ESI cites the sources).

For the compound `CCC(CC)(CC)CC`, the log K of transfer, water to solvent is 5.19 log10 K in series [1]; 5.64 log10 K in series [2] (Hexadecane, 25 C); 5.94 log10 K in series [2] (Hexane, 25 C); 4.78 log10 K in series [2] (Methanol, 25 C). Besides, the log K of transfer, gas to solvent in series [3] (Hexadecane, 25 C) was 4.01 log10 K; in series [3] (Hexane, 25 C), 4.31 log10 K; in series [3] (Methanol, 25 C), 3.15 log10 K; in series [3] (Water, 25 C), -1.63 log10 K.
As to `Clc1cccc(Cl)c1`, the log K of transfer, water to solvent was 3.6 log10 K in series [1]; 3.83 log10 K in series [2] (CCl4, 25 C); 3.87 log10 K in series [2] (Chloroform, 25 C); 3.69 log10 K in series [2] (Hexadecane, 25 C); 3.81 log10 K in series [2] (Hexane, 25 C); 3.41 log10 K in series [2] (Octan-1-ol(dry), 25 C). In addition, the log K of transfer, gas to solvent in series [3] (CCl4, 25 C) was 4.55 log10 K; in series [3] (Chloroform, 25 C) it was 4.59 log10 K; in series [3] (Hexadecane, 25 C), 4.41 log10 K; in series [3] (Hexane, 25 C), 4.53 log10 K; in series [3] (Octan-1-ol, 25 C), 4.13 log10 K; in series [3] (Water, 25 C), 0.72 log10 K.
`CC(C)(C)c1ccccc1`: the log K of transfer, water to solvent in series [1] is 4.11 log10 K; in series [2] (Hexadecane, 25 C), 4.09 log10 K; in series [2] (Methanol, 25 C), 3.73 log10 K; in series [2] (Propan-2-ol, 25 C) it was 3.78 log10 K; in series [2] (Tetrahydrofuran, 25 C), 4.77 log10 K. In addition, the log K of transfer, gas to solvent in series [3] (Hexadecane, 25 C) is 4.41 log10 K; in series [3] (Methanol, 25 C), 4.05 log10 K; in series [3] (Propan-2-ol, 25 C) it was 4.1 log10 K; in series [3] (Tetrahydrofuran, 25 C), 5.09 log10 K; in series [3] (Water, 25 C) it was 0.32 log10 K.
